Laboratory results from patent US11208387B2, “Macrocyclic broad spectrum antibiotics” (Genentech, Inc., priority 2019, dated 2021).
Converted amounts (≈) assume the structure as drawn. Read-outs that look alike come from different tables or passages of the source.

What was measured:
[1] = test system: Escherichia coli strain ATCC 25922; experiment: Serum MIC, broth micro-dilution; type: cell-based; details: Escherichia coli, read-out: E. coli 25922 Serum MIC
Summary of the method: (§1)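 Plates held at 35 °C for 22 h after adding bacteria to a final OD600 of 0.0005. Medium was a 1:1 mix of mouse serum and cation-adjusted Mueller Hinton II broth. Ten two-fold compound dilutions began at 64, 4, 0.5 or 0.13 μg/mL, per CLSI microdilution.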

[2] = test system: Klebsiella pneumoniae ATCC 700603; experiment: Serum MIC, broth micro-dilution; type: cell-based; details: Klebsiella pneumoniae, read-out: K pneumoniae 700603 Serum MIC
Summary of the method: as §1

[3] = test system: Pseudomonas aeruginosa PA01; experiment: Serum MIC, broth micro-dilution; type: cell-based; details: Pseudomonas aeruginosa, read-out: P. aeruginosa 01 Serum MIC
Summary of the method: as §1

[4] = test system: Acinetobacter baumannii ATCC 17978; experiment: Serum MIC, broth micro-dilution; type: cell-based; details: Acinetobacter baumannii
Summary of the method: as §1

[5] = test system: isolated liver mitochondria; experiment: Mitochondrial oxygen consumption rate (OCR) assay; type: biochemical, Sprague-Dawley rats; details: isolated rat liver mitochondria, state 3 (S3) respiration, glutamate/malate; Table 3
Summary of the method: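 Liver mitochondria from male Sprague-Dawley rats preincubated with compounds 1 h on ice (1% DMSO, pH 7.4 buffer), then given glutamate/malate with TTFA (plus ADP for state 3) and phosphorescent O2 probe. Oxygen consumption read 30 min at 30 °C. IC50 (50 μg protein, S3) or UC50 (100 μg, S2) derived from AUC.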

[6] = ATCC25922, 50% v/v mouse serum in Mueller Hinton II cation adjusted Broth, 35° C., 22 hours, Table 4
[7] = ATCC700603, 50% v/v mouse serum in Mueller Hinton II cation adjusted Broth, 35° C., 22 hours, Table 4
[8] = PA01, 50% v/v mouse serum in Mueller Hinton II cation adjusted Broth, 35° C., 22 hours, Table 4
[9] = ATCC17978, 50% v/v mouse serum in Mueller Hinton II cation adjusted Broth, 35° C., 22 hours, Table 4, read-out: A. baumanii 17978 Serum MIC
[10] = ATCC17978, 50% v/v mouse serum in Mueller Hinton II cation adjusted Broth, 35° C., 22 hours, Table 5, read-out: Acinetobacter baumanii 17978 Serum MIC

| Compound | MIC ([1]; ATCC25922, 22 h) [µM] | MIC ([2]; ATCC700603, 22 h) [µM] | MIC ([3]; PA01, 22 h) [µM] | MIC ([4]; ATCC17978, 22 h, read-out: A. baumanii 17978 Serum MIC) [µM] | MIC ([4]; ATCC17978, 22 h, read-out: Acinetobacter baumanii 17978 Serum MIC) [µM] | IC50 [5] [µM] | MIC [1, 6] [µM] | MIC [2, 7] [µM] | MIC [3, 8] [µM] | MIC [4, 9] [µM] | MIC [4, 10] [µM] |
| --- | --- | --- | --- | --- | --- | --- | --- | --- | --- | --- | --- |
| Cc1nc(-c2ccc(OC(C)C)cc2)ncc1C(=O)N[C@@H](CCN)C(=O)N(C)[C@@H]1C(=O)N[C@@H](C)C(=O)N[C@H](C(=O)O)Cc2ccc(OC[C@H](O)CN)c(c2)-c2cc1cc(OC[C@H](O)CN)c2O [Example 20, (8S,11S,14S)-18-hydroxy-11-methyl-14-[methyl-[(2S)-4-amino-2-[[2-(4-isopropoxyphenyl)-4-methyl-pyrimidine-5-carbonyl]amino]-butanoyl]amino]-10,13-dioxo-3,17-bis[(2R)-3-amino-2-hydroxy-propoxy]-9,12-diazatricyclo-[13.3.1.12,6]icosa-1(18),2(20),3,5,15(19), 16-hexaene-8-carboxylic acid] | 0.58 (≈ 0.539 µg/mL) | 0.46 (≈ 0.428 µg/mL) | 64 (≈ 59.5 µg/mL) | 16 (≈ 14.9 µg/mL) | 16 (≈ 14.9 µg/mL) | > 250 |  |  |  |  |  |
| Cc1nc(-c2ccc3c(c2)CCC3(C)C)nc(N)c1C(=O)N[C@@H](CNS(N)(=O)=O)C(=O)N(C)[C@@H]1C(=O)N[C@@H](C)C(=O)N[C@H](C(=O)O)Cc2ccc(OC[C@H](O)CN)c(c2)-c2cc1cc(OC[C@H](O)CN)c2O [Example 66, (8S,11S,14S)-14-[[(2S)-2-[[4-amino-2-(1,1-dimethylindan-5-yl)-6-methyl-pyrimidine-5-carbonyl]-amino]-3-(sulfamoyl-amino)propanoyl]-methyl-amino]-3,17-bis[(2R)-3-amino-2-hydroxy-propoxy]-18-hydroxy-11-methyl-10,13-dioxo-9,12-diazatricyclo-[13.3.1.12,6]icosa-1(18),2(20),3,5,15(19), 16-hexaene-8-carboxylic acid] |  |  |  |  |  | 69 | 0.75 (≈ 0.765 µg/mL) | 0.75 (≈ 0.765 µg/mL) | 6 (≈ 6.12 µg/mL) | 12 (≈ 12.2 µg/mL) | 12 (≈ 12.2 µg/mL) |
| Cc1nc(-c2ccc(C(F)(F)C(C)C)cc2)nc(N)c1C(=O)N[C@@H](CNS(N)(=O)=O)C(=O)N(C)[C@@H]1C(=O)N[C@@H](C)C(=O)N[C@H](C(=O)O)Cc2ccc(OC[C@H](O)CN)c(c2)-c2cc1cc(OC[C@H](O)CN)c2O [Example 38, (8S,11S,14S)-14-[[(2S)-2-[[4-amino-2-[4-(1,1-difluoro-2-methyl-propyl)-phenyl]-6-methyl-pyrimidine-5-carbonyl]amino]-3-(sulfamoylamino)-propanoyl]-methyl-amino]-3,17-bis[(2R)-3-amino-2-hydroxy-propoxy]-18-hydroxy-11-methyl-10,13-dioxo-9,12-diazatri-cyclo[13.3.1.12,6]icosa-1(18),2(20),3,5,15(19), 16-hexaene-8-carboxylic acid] |  |  |  |  |  | > 100 | 0.5 (≈ 0.522 µg/mL) | 0.5 (≈ 0.522 µg/mL) | 12 (≈ 12.5 µg/mL) | 16 (≈ 16.7 µg/mL) | 16 (≈ 16.7 µg/mL) |
| Cc1nc(-c2ccc(C(C)(C)C)cc2F)nc(N)c1C(=O)N[C@@H](CNS(N)(=O)=O)C(=O)N(C)[C@@H]1C(=O)N[C@@H](C)C(=O)N[C@H](C(=O)O)Cc2ccc(OC[C@H](O)CN)c(c2)-c2cc1cc(OC[C@H](O)CN)c2O [Example 62, (8S,11S,14S)-14-[[(2S)-2-[[4-amino-2-(4-tert-butyl-2-fluoro-phenyl)-6-methyl-pyrimidine-5-carbonyl]-amino]-3-(sulfamoyl-amino)propanoyl]-methyl-amino]-3,17-bis[(2R)-3-amino-2-hydroxy-propoxy]-18-hydroxy-11-methyl-10,13-dioxo-9,12-diazatricyclo-[13.3.1.12,6]icosa-1(18),2(20),3,5,15(19), 16-hexaene-8-carboxylic acid] |  |  |  |  |  | > 100 | 1 (≈ 1.03 µg/mL) | 1 (≈ 1.03 µg/mL) | 6 (≈ 6.16 µg/mL) | 16 (≈ 16.4 µg/mL) | 16 (≈ 16.4 µg/mL) |
| Cc1nc(-c2ccc3c(c2O)CCC3(C)C)nc(N)c1C(=O)N[C@@H](CNS(N)(=O)=O)C(=O)N(C)[C@@H]1C(=O)N[C@@H](C)C(=O)N[C@H](C(=O)O)Cc2ccc(OC[C@H](O)CN)c(c2)-c2cc1cc(OC[C@H](O)CN)c2O [Example 70, (8S,11S,14S)-18-hydroxy-11-methyl-14-[methyl-[(2S)-2-[[4-amino-2-(4-hydroxy-1,1-dimethyl-indan-5-yl)-6-methyl-pyrimidine-5-carbonyl]-amino]-3-(sulfamoyl-amino)propanoyl]-amino]-10,13-dioxo-3,17-bis[(2R)-3-amino-2-hydroxy-propoxy]-9,12-diazatricyclo-[13.3.1.12,6]icosa-1(18),2(20),3,5,15(19), 16-hexaene-8-carboxylic acid] |  |  |  |  |  | 48 | 0.5 (≈ 0.518 µg/mL) | 1 (≈ 1.04 µg/mL) | 4 (≈ 4.14 µg/mL) | 16 (≈ 16.6 µg/mL) | 16 (≈ 16.6 µg/mL) |
